Data taken from patent publication US9486534B2, “Niacin conjugated fatty acid mixtures and their uses” (Catabasis Pharmaceuticals, Inc., priority 2009, dated 2016).

What was measured:
[1] = test system: ApoA1 (apolipoprotein A1); test: Effect on SREBP-1c target genes in HepG2 cells, real time PCR: ApoA1; format: cell-based; settings: HepG2 cells stimulated with oleate, 50 μM, 6 hours, normalized to 18S; FIG. 2
Experimental: (§1) HepG2 cells (ATCC) were seeded at 20,000 cells per well in 96 well plates. After adhering overnight, growth media (1.0% FBS in DMEM) was removed and cells were serum starved for 24 hours in DMEM containing 1% fatty acid free bovine serum albumin (BSA, Sigma). […] Cells were incubated for 6 hours and then washed with PBS. RNA was reverse-transcribed using the cells to cDNA reagents according to standard protocols (outlined in Applied Biosystem StepOne Real-time PCR protocols). Real time PCR of transcripts was performed with Taqman assays for the three specific genes FASN (fatty acid synthase), SCD (steroyl CoA desaturase) and ApoA1 (apolipoprotein A1). In all three cases, 18S-VIC® was used as a normalization control.

[2] = test system: SCD (steroyl CoA desaturase); test: Effect on SREBP-1c target genes in HepG2 cells, real time PCR: SCD; format: cell-based; settings: HepG2 cells stimulated with oleate, 50 μM, 6 hours, normalized to 18S; FIG. 2
Experimental: as §1

[3] = test system: ApoB secretion in HepG2 cells; settings: 3 concentrations (50, 100 and 200 μM), compared to niacin at 5 mM, FIG. 1
Experimental: HepG2 cells (ATCC) are seeded at 10,000 cells per well in 96 well plates. After adhering overnight, growth media (10% FBS in DMEM) is removed and cells are serum starved for 24 hours in DMEM containing 0.1% fatty acid free bovine serum albumin (BSA, Sigma). Cells are then treated with a compound. Niacin at 5 mM is used as a positive control. All treatments are performed in triplicate. Simultaneous with compound treatment, ApoB secretion is stimulated with addition of 0.1 oleate complexed to fatty acid free BSA in a 5:1 molar ratio. Incubation with a compound and oleate is conducted for 24 hours. Media supernatants are removed and ApoB concentrations are measured using ELISA kits (Mabtech AB). Percent inhibition of ApoB secretion is determined by normalizing data to vehicle treated wells. For a given compound, an IC50 (concentration at which 50% of ApoB secretion is inhibited) can also be determined by using a 4 parameter-fit inhibition curve model (Graph Pad Prism®). In each experiment, cell viability is determined using the ATPlite 1-Step kit (Perkin Elmer), such that compound effects due to cytotoxicity can be monitored.
The level of ApoB secretion was compared to that of niacin, evaluated at 5 mM concentration.

[4] = test system: FASN (fatty acid synthase); test: Effect on SREBP-1c target genes in HepG2 cells, real time PCR: FASN; format: cell-based; settings: HepG2 cells stimulated with oleate, 50 μM, 6 hours, normalized to 18S; FIG. 2
Experimental: as §1

SMILES	ApoA1 gene expression [1]	SCD gene expression [2]	inhibition of ApoB secretion [3]	FASN gene expression [4]
CC/C=C\C/C=C\C/C=C\C/C=C\C/C=C\C/C=C\CCC(=O)NCCNC(=O)c1cccnc1 [I-7, N-(2-(4Z,7Z,10Z,13Z,16Z,19Z)-docosa-4,7,10,13,16,19-hexaenamidoethyl)nicotinamide]	increase	statistically significant inhibition	significant inhibition	statistically significant inhibition
CC/C=C\C/C=C\C/C=C\C/C=C\C/C=C\CCCC(=O)NCCNC(=O)c1cccnc1 [I-8, N-(2-(5Z,8Z,11Z,14Z,17Z)-eicosa-5,8,11,14,17-pentaenamidoethyl)nicotinamide]	increase	statistically significant inhibition		statistically significant inhibition
